In patent publication US20090076098A1, “METHODS, KITS, AND COMPOUNDS FOR DETERMINING RESPONSIVENESS TO TREATMENT OF A PATHOLOGICAL DISORDER BY EPOTHILONES” (priority 2007, published 2009):
“And” between values parts separate entries of the source, which are not always exact repeats. Identical values can stand only once.

Legend:
[1] = test system: non small cell lung cancer (NSCLC) xenograft models; format: in vivo; conditions: for percentage of tumors with a T/C ratio<20%: share of models; for percentage of responses overall (T/C): share of models responding
Experimental: FIG. 1: Preclinical lung cancer study design: 22 non small cell lung cancer (NSCLC) xenograft models were derived from patients primary tumors directly after surgery; at low murine passages response to Sagopilone and standard chemotherapy was assessed and samples grouped into responders and non-responders. RNA from untreated control tumors was subjected to Affymetrix gene expression analysis for discrimination of gene expression levels at baseline with tumor response.
Lung cancer xenograft models were established by subcutaneously transplanting fresh tumor material from NSCLC patients into nude mice. Tumor types included pleomorphic carcinoma (7187, 7336), squamous cell carcinoma (7126, 7177, 7298, 7343, 7462, 7433, 7530), dedifferentiated carcinoma (7668), adenocarcinoma (7064, 7198, 7406, 7387, 7466, 7612) and small cell lung cancer ([…]).
Antitumor activity was determined using either the reduction in tumor area in treated versus control mice (T/C ratio), or the mean change in absolute tumor volume compared with volume at baseline (day of first treatment).
1° lung cancer biopsies obtained from patients with established cancer were transplanted into nude mice. Tumor growth curves for the treatment with Etoposide, Carboplatin, Gemcitabine, Taxol, Navelbine, Cetuximab, Erlotinib und Sagopilone were generated. Mutation status of p53 was analyzed in the models according to methods known in the art. Fourteen Sagopilone responders and eight Sagopilone non-responders were characterized in long-term experiments. A PBS control group was treated with PBS or Sagopilone for 24 hrs before sacrifice. RNA for Sagopilone responder and non-responder models were isolated according to methods known in the art and were hybridized onto arrays according to the manufacturer's instructions.

A549 NSCLC cells = assay: A549 NSCLC xenograft in nude mice: Sagopilone combined with acetazolamide; format: in vivo; conditions: acetazolamide 40 mg/day p.o. with Sagopilone 6 or 8 mg/kg, FIG. 11
Experimental: FIG. 11: A549 NSCLC cells were xenotransplanted into nude mice. Mice were treated starting on day 7 after tumor transplantation as indicated: Sagopilone 6 mg/kg or 8 mg/kg were given on days 17, 32 and 45 after transplantation as indicated by arrows, acetazolamide 40 mg/day p.o. was given either daily or twice a day for five days starting on the day of Sagopilone administration (2 h before and 2 h after application of Sagopilone).

[2] = 22 NSCLC xenograft models, FIG. 4, count

Q: How did the “percentage of tumors with a T/C ratio<20%” value ([1]; lung cancer xenografts) turn out when `CC(=O)O[C@H]1C(=O)[C@@]2(C)[C@H]([C@H](OC(=O)c3ccccc3)[C@]3(O)C[C@H](OC(=O)[C@H](O)[C@@H](NC(=O)c4ccccc4)c4ccccc4)C(C)=C1C3(C)C)[C@]1(OC(C)=O)CO[C@@H]1C[C@@H]2O` [Paclitaxel] was run?
A: The value was 56.2%.

Q: And the “percentage of responses overall (T/C)” value ([1]; lung cancer xenografts)?
A: Its value is 81.2%.

Q: Which results are given for `C=CC[C@H]1C(=O)C(C)(C)[C@@H](O)CC(=O)O[C@H](c2ccc3sc(C)nc3c2)C[C@@H]2O[C@]2(C)CCC[C@H](C)[C@@H]1O` [Sagopilone, (1S,3S,7S,10R,11S,12S,16R)-7,11-Dihydroxy-10-allyl-8,8,12,16-tetramethyl-3-(2-methyl-benzothiazol-5-yl)-4,17-dioxa-bicyclo[14.1.0]heptadecane-5,9-dione]?
A: samples with stable disease [1, 2]: three; samples with tumor regression [1, 2]: Eleven; models being non-responders (tumor progression), clinical criteria ([1]; 22 NSCLC xenograft models, count of models): eight; models showing response / tumor growth inhibition by T/C value ([1]; 22 lung cancer xenografts, tumor volume treated vs control, count of models): 22 and 22 of 22; number of NSCLC with a T/C ratio<20% ([1]; lung cancer xenografts, count of models): 12; percentage of tumors with a T/C ratio<20% ([1]; lung cancer xenografts): 76.5%; response of xenograft model Lu7198 ([1]; model Lu7198, FIG. 3B): tumor progression; response of xenograft model Lu7298 ([1]; model Lu7298, FIG. 3A): tumor shrinkage; activity and tolerability compared with commonly used cytotoxic agents in NSCLC ([1]; vs carboplatin, paclitaxel, gemcitabine, etoposide, vinorelbine, in words): superior activity and tolerability

Q: `CC(=O)Nc1nnc(S(N)(=O)=O)s1` [acetazolamide] was tested. Which “effect of combination with an epothilone on tumor response” value (A549 NSCLC cells) did it give?
A: Its value is “sensitization”.

Q: Which “percentage of tumors with a T/C ratio<20%” value ([1]; lung cancer xenografts) does the source give for `N.N.O=C([O-])C1(C(=O)[O-])CCC1.[Pt+2]` [carboplatin] here?
A: The value was 25.0%.

Q: What about the “percentage of responses overall (T/C)” value ([1]; lung cancer xenografts) of the same molecule?
A: The value was 68.8%.

Q: Which “response (percentage of models), criteria not given” value ([1]; lung cancer xenografts, b271, FIGS. 2a and 2b) does the source give for `Nc1ccn([C@@H]2O[C@H](CO)[C@@H](O)C2(F)F)c(=O)n1` [gemcitabine] here?
A: Its value is 61.5%.

Q: And the “percentage of tumors with a T/C ratio<20%” value ([1]; lung cancer xenografts)?
A: The value was 47.0%.

Q: And the “percentage of responses overall (T/C)” value ([1]; lung cancer xenografts)?
A: The value was 80.0%.

Q: What about the “models in which at least 2 animals per group (n=6) could not be evaluated due to toxicity” value ([1]; mouse, in vivo) of the same molecule?
A: The value was “seven”.

Q: And the “toxicity in xenograft-bearing mice” value ([1]; mouse, in vivo)?
A: Its value is “marked toxicity”.

Q: And the “models in which toxicity prevented evaluation of any mice” value ([1]; nude, mouse, in vivo)?
A: The value was 2.
